From patent US20070179295A1, “Triazolopyrimidines” (priority 2003, published 2007)

Assay: logP determination through HPLC (EEC directive 79/831 Annex V. A8, gradient method, acetonitrile/0.1% aqueous phosphoric acid)
Format: physicochemical
Settings: for chromatographic logP: HPLC
[1] = Table 1, compounds of formula (I), HPLC gradient method, acetonitrile/0.1% aqueous phosphoric acid
[2] = Table 2, precursors of formula (II)

Row | Structure (SMILES) | logP [1] | further results
1 | Clc1cc(-c2c(Cl)nc3nc(C4CC4)nn3c2N2CCCCCC2)c(Cl)s1 [Example 85] | 5.14 | 
2 | CC(Nc1c(-c2ccccn2)c(Cl)nc2nc(C3CC3)nn12)C(F)(F)F (centres unmarked) [Example 22] | 2.60 | 
3 | Cc1nc2nc(Cl)c(-c3ncccc3C(F)(F)F)c(NC(C)C(C)C)n2n1 (centres unmarked) [Example 12] | 2.68 | 
4 | CC(C)(C)CNc1c(-c2cc(Cl)sc2Cl)c(Cl)nc2nc(C3CC3)nn12 [Example 50] | 5.08 | 
5 | CC(C)CC(C)Nc1c(-c2cc(Cl)sc2Cl)c(Cl)nc2nc(C3CC3)nn12 (centres unmarked) [Example 68] | 5.42 | 
6 | Cc1nc2nc(Cl)c(-c3ncncc3Cl)c(NC(C)C(C)C)n2n1 (centres unmarked) [Example 9] | 2.31 | 
7 | CC(C)CN(C)c1c(-c2cc(Cl)sc2Cl)c(Cl)nc2nc(C3CC3)nn12 [Example 81] | 5.25 | 
8 | CC(C)C(C)Nc1c(-c2ccsc2)c(Cl)nc2nc(C3CC3)nn12 (centres unmarked) [Example 52] | 3.81 | 
9 | CCC(C)Nc1c(-c2cc(Cl)sc2Cl)c(Cl)nc2nc(C3CC3)nn12 (centres unmarked) [Example 69] | 4.56 | 
10 | Clc1cncnc1-c1c(Cl)nc2nc(C3CC3)nn2c1Cl [Example 116] |  | logP [2]: 2.23
11 | CC(C)c1nc2nc(Cl)c(-c3ncc(C(F)(F)F)cc3Cl)c(NC(C)C(F)(F)F)n2n1 (centres unmarked) [Example 111] | 3.95 | 
12 | CC(C)Nc1c(-c2ccsc2)c(Cl)nc2nc(C3CC3)nn12 [Example 72] | 3.07 | 
13 | CC(C)(C)CNc1c(-c2ccsc2)c(Cl)nc2nc(C3CC3)nn12 [Example 77] | 3.85 | 
14 | Clc1nc2nc(C3CC3)nn2c(N2CCCC2)c1-c1ccsc1 [Example 65] | 3.18 | 
15 | CC(C)c1nc2nc(Cl)c(-c3ncncc3Cl)c(NC(C)C(C)C)n2n1 (centres unmarked) [Example 36] | 3.17 | 
16 | CC(Nc1c(-c2ccsc2)c(Cl)nc2nc(C3CC3)nn12)C(F)(F)F (centres unmarked) [Example 59] | 3.29 | 
17 | CCCN(CC1CC1)c1c(-c2cc(Cl)sc2Cl)c(Cl)nc2nc(C3CC3)nn12 [Example 79] | 5.71 | 
18 | CC(Nc1c(-c2ncncc2F)c(Cl)nc2nc(C3CC3)nn12)C(F)(F)F (centres unmarked) [Example 105] | 2.57 | 
19 | CC(Nc1c(-c2cc(Cl)sc2Cl)c(Cl)nc2nc(C3CC3)nn12)C(F)(F)F (centres unmarked) [Example 46] | 4.32 | 
20 | CC(C)C(C)Nc1c(-c2ncccc2[N+](=O)[O-])c(Cl)nc2nc(C3CC3)nn12 (centres unmarked) [Example 25] | 2.82 | 
21 | CC1CCN(c2c(-c3ncncc3Cl)c(Cl)nc3nc(C4CC4)nn23)CC1 [Example 94] | 3.30 | 
22 | Clc1nc2nc(C3CC3)nn2c(N2CCOCC2)c1-c1ccsc1 [Example 73] | 2.51 | 
23 | CC(Nc1c(-c2ncccc2C(F)(F)F)c(Cl)nc2nc(C3CC3)nn12)C(F)(F)F (centres unmarked) [Example 7] | 3.01 | 
24 | CC(C)c1nc2nc(Cl)c(-c3ncncc3F)c(NC(C)C(C)(C)C)n2n1 (centres unmarked) [Example 100] | 3.47 | 
25 | CC1CCN(c2c(-c3ncccc3C(F)(F)F)c(Cl)nc3nc(C4CC4)nn23)CC1 [Example 3] | 3.77 | 
26 | O=[N+]([O-])c1cccc(-c2c(Cl)nc3nc(C4CC4)nn3c2Cl)n1 [Example 119] |  | logP [2]: 2.91
27 | CC(C)C(C)Nc1c(-c2ncncc2Cl)c(Cl)nc2nc(C3CC3)nn12 (centres unmarked) [Example 37] | 2.95 | 

Row | Structure (SMILES) | logP [1] | further results
28 | CC(C)C(C)Nc1c(-c2ncccc2C(F)(F)F)c(Cl)nc2nc(C3CC3)nn12 (centres unmarked) [Example 6] | 3.29 | 
29 | Clc1cc(-c2c(Cl)nc3nc(C4CC4)nn3c2NC2CCCC2)c(Cl)s1 [Example 70] | 4.82 | 
30 | Clc1cc(-c2c(Cl)nc3nc(C4CC4)nn3c2N2CCCC2)c(Cl)s1 [Example 82] | 4.37 | 
31 | CC(Nc1c(-c2ccccn2)c(Cl)nc2nc(C3CC3)nn12)C(C)(C)C (centres unmarked) [Example 18] | 3.09 | 
32 | CC(C)c1nc2nc(Cl)c(-c3ncncc3F)c(NC(C)C(F)(F)F)n2n1 (centres unmarked) [Example 102] | 2.78 | 
33 | Oc1nc2nc(C3CC3)nn2c(O)c1-c1ncccc1C(F)(F)F [Example 124, 6-(3-trifluoromethyl-pyridin-2-yl)-2-cyclopropyl[1,2,4]triazolo[1,5-a]-pyrimidin-5,7-diol] |  | chromatographic logP: 0.47
34 | Cc1nc2nc(Cl)c(-c3ncncc3F)c(NC(C)C(F)(F)F)n2n1 (centres unmarked) [Example 109] | 2.03 | 
35 | FC(F)(F)CNc1c(-c2cc(Cl)sc2Cl)c(Cl)nc2nc(C3CC3)nn12 [Example 47] | 3.85 | 
36 | CC1CCN(c2c(-c3ccsc3)c(Cl)nc3nc(C4CC4)nn23)CC1 [Example 55] | 4.23 | 
37 | CC1CCCCN1c1c(-c2ccsc2)c(Cl)nc2nc(C3CC3)nn12 (centres unmarked) [Example 95] | 4.07 | 
38 | CC(Nc1c(-c2ccccn2)c(Cl)nc2nc(C3CC3)nn12)C(F)(F)F (centres unmarked) [Example 24] | 2.60 | 
39 | CC1CCN(c2c(-c3ncncc3F)c(Cl)nc3nc(C4CC4)nn23)CC1 [Example 106] | 3.02 | 
40 | CCCN(CC1CC1)c1c(-c2ccsc2)c(Cl)nc2nc(C3CC3)nn12 [Example 66] | 4.32 | 
41 | Cc1nc2nc(Cl)c(-c3cncnc3C(F)(F)F)c(Cl)n2n1 [Example 117] |  | logP [2]: 2.10
42 | FC(F)(F)CNc1c(-c2ncncc2Cl)c(Cl)nc2nc(C3CC3)nn12 [Example 30] | 2.37 | 
43 | CC(Nc1c(-c2ncccc2C(F)(F)F)c(Cl)nc2nc(C3CC3)nn12)C(C)(C)C (centres unmarked) [Example 5] | 3.75 | 
44 | Clc1nc2nc(C3CC3)nn2c(Cl)c1-c1ccccn1 [Example 118] |  | logP [2]: 1.88
45 | C=C(C)CN(C)c1c(-c2ccsc2)c(Cl)nc2nc(C3CC3)nn12 [Example 75] | 3.81 | 
46 | Cc1nc2nc(Cl)c(-c3ncncc3Cl)c(Cl)n2n1 [Example 115, 5,7-dichloro-6-(5-chloro-4-pyrimidinyl)-2-methyl[1,2,4]-triazolo[1,5-a]pyrimidine] |  | chromatographic logP: 1.58
47 | Cc1nc2nc(Cl)c(-c3ncccc3C)c(N3CCC(C)CC3)n2n1 [Example 10] | 3.09 | 
48 | CC(Nc1c(-c2ccncc2Cl)c(Cl)nc2nc(C3CC3)nn12)C(F)(F)F (centres unmarked) [Example 42] | 2.82 | 
49 | Cc1nc2nc(Cl)c(-c3ncncc3Cl)c(NC(C)C(F)(F)F)n2n1 [Example 2, N-[5-chloro-6-(5-chloro-4-pyrimidinyl)-2-methyl[1,2,4]triazolo[1,5-a]pyrimidin-7-yl]-N-[(1S)-2,2,2-trifluor-1-methylethyl]amine] |  | chromatographic logP (HPLC (gradient method)): 2.13
50 | Cc1nc2nc(Cl)c(-c3ncccc3C(F)(F)F)c(NC(C)C(C)(C)C)n2n1 (centres unmarked) [Example 11] | 2.99 | 
51 | CC(C)C(C)Nc1c(-c2ncncc2F)c(Cl)nc2nc(C3CC3)nn12 (centres unmarked) [Example 104] | 2.79 | 
52 | CC(C)c1nc2nc(Cl)c(-c3ncc(C(F)(F)F)cc3Cl)c(NC(C)C(C)C)n2n1 (centres unmarked) [Example 112] | 4.32 | 
53 | CC(C)C(C)Nc1c(-c2ccccn2)c(Cl)nc2nc(C3CC3)nn12 (centres unmarked) [Example 27] | 2.63 | 
54 | FC(F)(F)c1cccnc1-c1c(Cl)nc2nc(C3CC3)nn2c1Cl [Example 114] |  | chromatographic logP: 2.73

Row | Structure (SMILES) | logP [1] | further results
55 | CC(C)c1nc2nc(Cl)c(-c3ncncc3Cl)c(NCC(F)(F)F)n2n1 [Example 31] | 2.56 | 
56 | Cc1nc2nc(Cl)c(-c3ncncc3F)c(NC(C)C(C)C)n2n1 (centres unmarked) [Example 108] | 2.21 | 
57 | CC(C)c1nc2nc(Cl)c(-c3ncncc3F)c(NC(C)C(C)C)n2n1 (centres unmarked) [Example 101] | 3.02 | 
58 | COCCN(C)c1c(-c2cc(Cl)sc2Cl)c(Cl)nc2nc(C3CC3)nn12 [Example 58] | 4.08 | 
59 | C[C@H](Nc1c(-c2ncc([N+](=O)[O-])cc2Cl)c(Cl)nc2nc(C3CC3)nn12)C(F)(F)F [Example 19] | 3.26 | 
60 | CC(C)C(C)Nc1c(-c2ccncc2Cl)c(Cl)nc2nc(C3CC3)nn12 (centres unmarked) [Example 43] | 3.09 | 
61 | FC1(F)CCN(c2c(-c3ccsc3)c(Cl)nc3nc(C4CC4)nn23)CC1 [Example 56] | 3.41 | 
62 | CC(C)CN(C)c1c(-c2ccsc2)c(Cl)nc2nc(C3CC3)nn12 [Example 63] | 3.90 | 
63 | Clc1cc(-c2c(Cl)nc3nc(C4CC4)nn3c2N2CCOCC2)c(Cl)s1 [Example 89] | 3.68 | 
64 | CC(Nc1c(-c2ncncc2Cl)c(Cl)nc2nc(C3CC3)nn12)C(C)(C)C (centres unmarked) [Example 33] | 3.50 | 
65 | CC(C)C(C)Nc1c(-c2cc(Cl)sc2Cl)c(Cl)nc2nc(C3CC3)nn12 (centres unmarked) [Example 53] | 5.03 | 
66 | COCCNc1c(-c2cc(Cl)sc2Cl)c(Cl)nc2nc(C3CC3)nn12 [Example 76] | 3.55 | 
67 | CC(C)c1nc2nc(Cl)c(-c3ncncc3Cl)c(NC(C)C(C)(C)C)n2n1 (centres unmarked) [Example 34] | 3.67 | 
68 | CC(Nc1c(-c2ncncc2Cl)c(Cl)nc2nc(C3CC3)nn12)C(C)(C)C (centres unmarked) [Example 35] | 3.39 | 
69 | Clc1nc2nc(C3CC3)nn2c(NC2CCCC2)c1-c1ccsc1 [Example 74] | 3.63 | 
70 | CC(Nc1c(-c2ncncc2Cl)c(Cl)nc2nc(C3CC3)nn12)C(F)(F)F (centres unmarked) [Example 38] | 2.82 | 
71 | CC(Nc1c(-c2nc([N+](=O)[O-])ccc2Cl)c(Cl)nc2nc(C3CC3)nn12)C(C)(C)C (centres unmarked) [Example 28] | 3.86 | 
72 | Cc1nc2nc(Cl)c(-c3ncccc3[N+](=O)[O-])c(NC(C)C(C)(C)C)n2n1 (centres unmarked) [Example 21] | 2.60 | 
73 | C=C(C)CN(CC)c1c(-c2ccsc2)c(Cl)nc2nc(C3CC3)nn12 [Example 57] | 4.13 | 
74 | CC(Nc1c(-c2scnc2Cl)c(Cl)nc2nc(C3CC3)nn12)C(F)(F)F (centres unmarked) [Example 91] | 2.94 | 
75 | CC(C)CC(C)Nc1c(-c2ccsc2)c(Cl)nc2nc(C3CC3)nn12 (centres unmarked) [Example 61] | 4.14 | 
76 | Cc1nc2nc(Cl)c(-c3ncncc3F)c(NC(C)C(C)(C)C)n2n1 (centres unmarked) [Example 107] | 2.54 | 
77 | FC1(F)CCN(c2c(-c3ncncc3Cl)c(Cl)nc3nc(C4CC4)nn23)CC1 [Example 41] | 2.75 | 
78 | CC(C)c1nc2nc(Cl)c(-c3ncncc3Cl)c(NC(C)C(F)(F)F)n2n1 (centres unmarked) [Example 29] | 2.90 | 
79 | Oc1nc2nc(C3CC3)nn2c(O)c1-c1ncncc1Cl [Example 127] |  | logP (Table 3, precursors of formula (IV)): −0.07
80 | CC(C)C(C)Nc1c(-c2ncncc2Cl)c(Cl)nc2nc(C3CC3)nn12 (centres unmarked) [Example 32] | 3.12 | 
